# According to patent US7452869B2, “NIP3 family of proteins” (University of Manitoba, priority 2000, dated 2008):
# Starred links: 1 amine or outer side, 2 acyl side, 3 side chain; linkers in the order of their positions; H or OH if unused. Positions of bridges follow the written chain, without caps; N, C: chain ends. Non-standard residues stand in square brackets, D forms with d. Residues, ends and D or L forms follow the SMILES beside them. Chains are numbered I, II in the order given. Actinocin(9to1) = Cc1c2oc3c(C)ccc(C(=O)[*:1])c3nc-2c(C(=O)[*:2])c(N)c1=O; NMeV = CN[C@H](C(=O)O)C(C)C; Sar = CNCC(=O)O
# Assays:
# caspase 3-like proteases = experiment: caspase activation, colorigenic cleavage of Ac-DEVD-pNA by lysates of transfected 293T cells; type: biochemical
# Method: Lysates were collected from 293T cells, transiently transfected via the CaP04 method (Ray, R., et al., 1999), at the indicated times. Aliquots of these lysates were run under Laemmli sodium dodecyl sulfate-polyacrylamide gel electrophoresis (SDS-PAGE) conditions and immunoblotted with mouse monoclonal anti-PARP. Results were visualized with an enhanced chemiluminescence system (Amersham Pharmacia Biotech, Amersham, U. K.). Transfected 293T cells were also assayed for caspase cleavage via colorigenic cleavage of the peptide Ac-DEVD-pNA (Biomol, Plymouth Meeting, Pa.), according to the conditions outlined by Quignon et al. (Scaffidi, C., et al., 1998), using 100 mM peptide. Where appropriate, samples were preincubated with 500 nM Ac-DEVD-fmk for 30 minutes at room temperature. Data were acquired on a Multiskan MCC/340 (Titertek) plate reader at 405 nm.
# 293T cells = experiment: DNA fragmentation (TUNEL) in transfected 293T cells; type: cell-based; set-up: dose or concentration left out as unconfirmed; details: Ac-FA-fmk
# Method: DNA fragmentation was detected using the in situ cell death detection kit with fluorescein (Boehringer Mannheim) as per the manufacturer's recommendations in the presence or absence of […] Ac-zVAD-fmk or Ac-FA-fmk. Images were captured as described earlier. No fewer than 200 nuclei were scored manually for each sample. Annexin V staining was performed exactly as described by the manufacturer (Boehringer Mannheim), and samples were analyzed via flow cytometry.
# [1] = test system: primary hippocampal neurons; experiment: excitotoxic cell death of primary hippocampal neurons, trypan blue exclusion; type: cell-based, rat
# Method: Primary hippocampal neurons were prepared from 18-day-old embryonic Sprague-Dawley rats as described previously by Haughey, N. J. et al. (2001). Briefly, hippocampal tissue was dissociated by gentle tituration in a calcium-free Hank's balanced salt solution and was centrifuged at 1000×g. Cells were resuspended in Dulbecco's modified Eagle's medium (DMEM)/F12 nutrient mixture containing 10% heat-inactivated fetal bovine serum and 1% antibiotic solution (104 IU of penicillin G/ml, 10 mg streptomycin/ml and 25 μg amphotericin B/ml) in 0.9% NaCl (Sigma, St Louis, Mo., USA). Hippocampal neurons were plated at a density of 2×10^5 cells/ml on 12-mm diameter poly d-lysine-coated glass coverslips. Three hours after plating, the media was replaced with serum-free Neurobasal media containing 1% B-27 supplement (Gibco, Rockville, Md., USA).
# To determine the extent to which NMDA-type glutamate receptors were involved in BNIP3 expression and excitotoxic cell death, the inventors used the agonist NMDA (100 μM) in the absence or presence of the NMDA receptor antagonist MK-801 (10 μM). To determine the extent to which caspase activation contributes to BNIP3-mediated cell death, hippocampal cells were incubated in the absence or presence of the broad spectrum cell permeable caspase inhibitors z-VAD-FMK (50 μM) and BOC-D-FMK (50 μM); these inhibitors were applied 30 minutes prior to application of glutamate or NMDA. […]
# In vitro cell death was estimated using trypan blue exclusion. Cells were incubated in 0.4% trypan blue solution for 30 minutes and then counted on a bright-field microscope. Nonviable cells were distinguished by their dark blue staining. To examine nuclear morphology, nuclear DNA was stained with Hoescht 33342. DNA fragmentation was detected by TUNEL using an in situ cell death detection kit with fluorescein. Statistical analyses were by ANOVA with Tukey's post-test.
compound,measurement,setting,value
CC(=O)N[C@@H](CC(=O)O)C(=O)N[C@@H](CCC(=O)O)C(=O)N[C@H](C(=O)N[C@@H](CC(=O)O)C(=O)CF)C(C)C [Ac-DEVD-fmk],proteolytic activity of lysates of BNIP3 or BNIP3DTM transfected cells with inhibitor,caspase 3-like proteases; 500 nM Ac-DEVD-fmk,not inhibited
same,Ac-DEVD-pNA substrate cleavage in tBID-transfected cells with inhibitor,caspase 3-like proteases; lysates preincubated with 500 nM Ac-DEVD-fmk,blocked
CC(=O)NC(Cc1ccccc1)C(=O)NC(C)C(=O)CF (stereo not drawn) [Ac-FA-fmk],DNA fragmentation (TUNEL) in parallel populations,293T cells,No effect
CN[C@H](CC(=O)O)C(=O)O [NMDA],neuronal cell death (trypan blue exclusion),"[1]; 6 hours after application, p<0.01",significantly increased
"Cc1c2oc3c(C)ccc(C(=O)N[C@@H]4C(=O)N[C@H](C(C)C)C(=O)N5CCC[C@H]5C(=O)N(C)CC(=O)N(C)[C@@H](C(C)C)C(=O)O[C@@H]4C)c3nc-2c(C(=O)N[C@@H]2C(=O)N[C@H](C(C)C)C(=O)N3CCC[C@H]3C(=O)N(C)CC(=O)N(C)[C@@H](C(C)C)C(=O)O[C@@H]2C)c(N)c1=O [actinomycin D] (I: T[dV]P[Sar][NMeV] / II: T[dV]P[Sar][NMeV]; ester I:1-I:C, II:1-II:C; linker I:N-II:N via Actinocin(9to1))",number of trypan blue positive cells caused by glutamate toxicity,"[1]; actinomycin D 1 mg/ml added, p<0.01, to untreated control levels",significantly decreased
same,"cell death rates, drug alone",[1]; actinomycin D alone,did not affect
